Assay results reported in ChEMBL document CHEMBL1138268, “Synthesis and evaluation of cis-1-[4-(hydroxymethyl)-2-cyclopenten-1-yl]-5-[(124)I]iodouracil: a new potential PET imaging agent for HSV1-tk expression” (J Med Chem, 2007).

Tests used:
[1] = Metabolic stability in mouse liver microsomes after 30 min; type: ADME, Microsome
[2] = Metabolic stability in mouse serum after 6 hrs; type: ADME, cell-free
[3] = Cytotoxicity against MCA cells; type: cell-based
[4] = Cytotoxicity against MCA-TK cells; type: cell-based

O=c1[nH]c(=O)n([C@H]2C[C@H](O)[C@@H](CO)O2)cc1I [IDOXURIDINE]
half-life [1]: 1.24 h
half-life [2]: 22.6 h

Nc1nc2c(ncn2COC(CO)CO)c(=O)[nH]1 [GANCICLOVIR]
IC50 [3]: 270 µM
IC50 [4]: 0.15 µM
